These results are taken from EP2970215B1, “PYRROLIDINE DERIVATIVES, PHARMACEUTICAL COMPOSITIONS CONTAINING THEM, AND THEIR USE IN THERAPY” (AbbVie Deutschland GmbH & Co. KG, priority 2013, dated 2014).

pKi: −log10 of the molar value.

The target in the first test is T1, human GlyT1c transporter (Homo sapiens, UniProt P48067).
T1 construct: expressed in transfected cells; host or cells: CHO cells (recombinant; line hGlyT1c_5_CHO is named for the uptake assay)
T1 sequence (P48067 1-706): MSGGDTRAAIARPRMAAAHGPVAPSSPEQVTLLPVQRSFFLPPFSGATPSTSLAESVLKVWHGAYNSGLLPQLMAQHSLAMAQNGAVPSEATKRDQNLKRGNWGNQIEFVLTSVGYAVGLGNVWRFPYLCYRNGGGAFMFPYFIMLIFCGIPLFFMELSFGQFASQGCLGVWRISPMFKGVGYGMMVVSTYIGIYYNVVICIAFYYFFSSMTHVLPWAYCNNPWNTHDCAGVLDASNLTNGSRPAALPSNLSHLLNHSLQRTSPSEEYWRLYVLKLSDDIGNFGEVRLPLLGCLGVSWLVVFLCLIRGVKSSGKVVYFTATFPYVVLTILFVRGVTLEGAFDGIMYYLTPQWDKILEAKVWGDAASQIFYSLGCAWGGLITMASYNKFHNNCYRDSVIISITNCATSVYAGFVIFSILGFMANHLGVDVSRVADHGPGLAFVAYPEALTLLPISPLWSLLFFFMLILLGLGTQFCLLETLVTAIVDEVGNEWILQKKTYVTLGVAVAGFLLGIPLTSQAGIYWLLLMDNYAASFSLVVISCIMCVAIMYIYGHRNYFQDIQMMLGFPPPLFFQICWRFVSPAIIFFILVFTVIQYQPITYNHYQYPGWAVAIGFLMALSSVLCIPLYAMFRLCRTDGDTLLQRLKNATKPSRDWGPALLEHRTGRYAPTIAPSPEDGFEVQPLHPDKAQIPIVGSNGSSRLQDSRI
As to the kind of experiment: Radioligand binding assay using recombinant CHO cell membranes expressing human GlyT1. The following applies: radioligand binding to human GlyT1c transporter-expressing membranes. An excerpt: 2. Radioligand binding assays using recombinant CHO cell membranes expressing human GlyT1: […]
For the molecule `Cn1cnc(S(=O)(=O)N2C[C@@H](CNc3ccc(F)c(Cl)c3)[C@H](c3ccc(F)cc3)C2)c1` (relative stereo) [Example 314, 3-chloro-4-fluoro-N-({trans-4-(4-fluorophenyl)-1-[(1-methyl-1H-imidazol-4-yl)sulfonyl]pyrrolidin-3-yl}methyl)aniline], the pKi was not below 6.00.

Regarding `Cn1cnc(S(=O)(=O)N2C[C@@H](Nc3cccc(F)c3)[C@H](c3ncccc3F)C2)c1` (relative stereo) [Example 805, Trans-N-(3-fluorophenyl)-4-(3-fluoropyridin-2-yl)-1-[(1-methyl-1H-imidazol-4-yl)sulfonyl]pyrrolidin-3-amine], the negative-log Ki (pKi) was not below 6.00.

With `Cn1cnc(S(=O)(=O)N2C[C@@H](Nc3ccc(F)c(Cl)c3)[C@H](c3ncccc3F)C2)c1` (relative stereo) [Example 771, Trans-N-(3-chloro-4-fluorophenyl)-4-(3-fluoropyridin-2-yl)-1-[(1-methyl-1H-imidazol-4-yl)sulfonyl]pyrrolidin-3-amine], the pKi was not below 7.00.

Turning to `N#Cc1cccc(N[C@@H]2CN(S(=O)(=O)CC3CC3)C[C@H]2c2ccccc2)c1` (relative stereo) [Example 133, 3-({trans-1-[(cyclopropylmethyl)sulfonyl]-4-phenylpyrrolidin-3-yl}amino)benzonitrile], the pKi is not below 5.00.

For `Cc1oc2ccccc2c1CN[C@H]1CN(S(=O)(=O)c2cn(C)cn2)C[C@@H]1c1ccccc1` [Example 443, (3R,4S)-N-[(2-methyl-1-benzofuran-3-yl)methyl]-1-[(1-methyl-1H-imidazol-4-yl)sulfonyl]-4-phenylpyrrolidin-3-amine], the pKi is not below 6.00.

As for `Cn1cnc(S(=O)(=O)N2C[C@@H](Nc3ccnc(C(F)(F)F)c3)[C@H](c3ccccc3Cl)C2)c1` (relative stereo) [Example 259, N-{trans-4-(2-chlorophenyl)-1-[(1-methyl-1H-imidazol-4-yl)sulfonyl]pyrrolidin-3-yl}-2-(trifluoromethyl)pyridin-4-amine], the pKi was not below 6.00.

With `Cn1cnc(S(=O)(=O)N2C[C@H](Nc3ccc(Cl)c(C(F)(F)F)c3)[C@@H](C3CCCO3)C2)c1` (stereo partly drawn) [Example 619, (3R,4S)-N-[4-chloro-3-(trifluoromethyl)phenyl]-1-[(1-methyl-1H-imidazol-4-yl)sulfonyl]-4-(tetrahydrofuran-2-yl)pyrrolidin-3-amine], the pKi was not below 6.00.

Consider `Cn1cnc(S(=O)(=O)N2C[C@@H]([C@@H]3CCCOC3)[C@H](Nc3ccc(Cl)c(OC(F)(F)F)c3)C2)c1` (relative stereo) [Example 793, Trans-N-[4-chloro-3-(trifluoromethoxy)phenyl]-1-[(1-methyl-1H-imidazol-4-yl)sulfonyl]-4-[(3S)-tetrahydro-2H-pyran-3-yl]pyrrolidin-3-amine], for which the pKi was not below 5.00.

Take `Cn1cnc(S(=O)(=O)N2C[C@@H](C(=O)NCc3ccccc3)[C@H](c3ccc(F)cc3)C2)c1` (relative stereo) [Example 289, Trans-N-benzyl-4-(4-fluorophenyl)-1-[(1-methyl-1H-imidazol-4-yl)sulfonyl]pyrrolidine-3-carboxamide]: the pKi was not below 6.00.

Regarding `Cn1cnc(S(=O)(=O)N2C[C@H](OCC(=O)NCC(F)F)[C@@H](c3ccc(F)cc3)C2)c1` [Example 797, N-(2,2-difluoroethyl)-2-({(3R,4S)-4-(4-fluorophenyl)-1-[(1-methyl-1H-imidazol-4-yl)sulfonyl]pyrrolidin-3-yl}oxy)acetamide], the pKi is not below 5.00.

Regarding `Cn1cnc(S(=O)(=O)N2C[C@@H](Nc3cccc(OCC(F)(F)F)c3)[C@H](c3ncccc3F)C2)c1` (relative stereo) [Example 800, Trans-4-(3-fluoropyridin-2-yl)-1-[(1-methyl-1H-imidazol-4-yl)sulfonyl]-N-[3-(2,2,2-trifluoroethoxy)phenyl]pyrrolidin-3-amine], the pKi was not below 8.00.

Turning to `Cn1cnc(S(=O)(=O)N2C[C@@H](C(=O)Nc3cccc(C(F)(F)F)c3)[C@H](c3ccc(F)cc3)C2)c1` (relative stereo) [Example 317, Trans-4-(4-fluorophenyl)-1-[(1-methyl-1H-imidazol-4-yl)sulfonyl]-N-[3-(trifluoromethyl)phenyl]pyrrolidine-3-carboxamide], the pKi is not below 6.00.

For `CCCC(F)(F)C(=O)N[C@H]1CN(S(=O)(=O)c2cn(C)cn2)C[C@@H]1c1ccc(F)cc1` [Example 700, 2,2-difluoro-N-{(3R,4S)-4-(4-fluorophenyl)-1-[(1-methyl-1H-imidazol-4-yl)sulfonyl]pyrrolidin-3-yl}pentanamide], the pKi is not below 5.00.

Take `Cn1cnc(S(=O)(=O)N2C[C@@H](Nc3ccc(F)c(Cl)c3)[C@H](c3cccc(F)c3)C2)c1` (relative stereo) [Example 194, trans-N-(3-chloro-4-fluorophenyl)-4-(3-fluorophenyl)-1-[(1-methyl-1H-imidazol-4-yl)sulfonyl]pyrrolidin-3-amine]: the pKi was not below 7.00.

In the case of `Cn1cnc(S(=O)(=O)N2C[C@@H](COc3ccc(F)c(Cl)c3)[C@H](c3ccc(F)cc3)C2)c1` (relative stereo) [Example 318, 4-{[Trans-3-[(3-chloro-4-fluorophenoxy)methyl]-4-(4-fluorophenyl)pyrrolidin-1-yl]sulfonyl}-1-methyl-1H-imidazole], the pKi was not below 6.00.

In the case of `Cn1cnc(S(=O)(=O)N2C[C@@H](Nc3cccc(C(F)(F)F)c3F)[C@H](c3ccc(F)cc3)C2)c1` (relative stereo) [Example 167, trans-4-(4-fluorophenyl)-N-[2-fluoro-3-(trifluoromethyl)phenyl]-1-[(1-methyl-1H-imidazol-4-yl)sulfonyl]pyrrolidin-3-amine], the pKi was not below 7.00.

For the molecule `Cn1cnc(S(=O)(=O)N2C[C@H](Nc3cccc(C(F)(F)F)n3)[C@@H](c3ccc(F)cc3)C2)c1` [Example 351, N-{(3R,4S)-4-(4-fluorophenyl)-1-[(1-methyl-1H-imidazol-4-yl)sulfonyl]pyrrolidin-3-yl}-6-(trifluoromethyl)pyridin-2-amine], the pKi is not below 6.00.

With `Cn1cnc(S(=O)(=O)N2C[C@@H](N3Cc4cc(C(F)(F)F)ccc4NC3=O)[C@H](c3ccccc3)C2)c1` (relative stereo) [Example 404, 3-{Trans-1-[(1-methyl-1H-imidazol-4-yl)sulfonyl]-4-phenylpyrrolidin-3-yl}-6-(trifluoromethyl)-3,4-dihydroquinazolin-2(1H)-one], the pKi is not below 5.00.

In the case of `Cn1cnc(S(=O)(=O)N2C[C@H](Nc3cc(OC4CCCCC4)ncn3)[C@@H](c3ccc(F)cc3)C2)c1` [Example 721, 6-(cyclohexyloxy)-N-{(3R,4S)-4-(4-fluorophenyl)-1-[(1-methyl-1H-imidazol-4-yl)sulfonyl]pyrrolidin-3-yl}pyrimidin-4-amine], the pKi is not below 7.00.

As to `Cn1cnc(S(=O)(=O)N2C[C@@H](Nc3ccccc3Cl)[C@H](c3ccccc3)C2)c1` (relative stereo) [Example 73, trans-N-(2-chlorophenyl)-1-[(1-methyl-1H-imidazol-4-yl)sulfonyl]-4-phenylpyrrolidin-3-amine], the pKi is not below 5.00.

Turning to `Cn1cnc(S(=O)(=O)N2CC(Oc3ccccc3)C(c3ccccc3)C2)c1` (centres unmarked) [Example 277, 1-methyl-4-[(3-phenoxy-4-phenylpyrrolidin-1-yl)sulfonyl]-1H-imidazole], the pKi is not below 5.00.

For `Cn1cnc(S(=O)(=O)N2C[C@H](Nc3ccc(Cl)c(C(F)(F)F)c3)[C@@H](c3cocn3)C2)c1` [Example 753], the negative-log Ki (pKi) is not below 6.00.

Regarding `Cn1nccc1S(=O)(=O)N1C[C@@H](NC(=O)c2cccc(C(F)(F)F)c2Cl)[C@H](c2ccccc2)C1` (relative stereo) [Example 47, 2-chloro-N-{trans-1-[(1-methyl-1H-pyrazol-5-yl)sulfonyl]-4-phenylpyrrolidin-3-yl}-3-(trifluoromethyl)benzamide], the pKi was not above 5.00.

Turning to `Cn1cnc(S(=O)(=O)N2C[C@@H](CNc3ccc(F)c(OC(F)(F)F)c3)[C@H](c3ccc(F)cc3)C2)c1` (relative stereo) [Example 376, 4-fluoro-N-({trans-4-(4-fluorophenyl)-1-[(1-methyl-1H-imidazol-4-yl)sulfonyl]pyrrolidin-3-yl}methyl)-3-(trifluoromethoxy)aniline], the pKi is not below 6.00.

Still in this test, the particulars now being: radioligand binding, recombinant CHO cell membranes expressing human GlyT1c.
Consider `Cn1cnc(S(=O)(=O)N2C[C@@H](Nc3ccc(F)c(OC(F)(F)F)c3)[C@H](C3CCOC3)C2)c1` (relative stereo) [Example 831, trans -N-[4-fluoro-3-(trifluoromethoxy)phenyl]-1-[(1-methyl-1 H-imidazol-4-yl)sulfonyl] -4-(tetrahydrofuran-3-yl)pyrrolidin-3-amine], for which the pKi was not below 6.00.

Take `Cn1cnc(S(=O)(=O)N2C[C@@H](Nc3ccc(F)c(C(F)(F)F)c3)[C@H](C3CCOC3)C2)c1` (relative stereo) [Example 832, trans-N-[4-fluoro-3-(trifluoromethyl)phenyl]-1-[(1-methyl-1H-imidazol-4-yl)sulfonyl]-4-(tetrahydrofuran-3-yl)pyrrolidin-3-amine]: the pKi was not below 6.00.
